These are literature values, as cited in patent US20080075681A1, “Method and composition for permanently shaping hair” (priority 2006, published 2008).

The conditions of the data set: compared to N-methylmercaptoacetamide and N-hydroxyethylmercaptoacetamide; EP 0969791 B1.

As to `O=C(CS)NCCCO` [N-(3′-hydroxypropyl)-2-mercapto-acetamide], the sensitization rates result is “substantially lower”.
